Results as given in patent publication EP0361645B1, “Organic hydrazine derivatives for pharmaceutical use” (ROHM AND HAAS COMPANY, priority 1988, dated 1990).

Key:
intact L5D0 hornworms [1] = experiment: Premature head capsule apolysis in intact L5D0 hornworms, fed treated diet; type: in vivo, M. sexta; conditions: for ED50: L5D0 larvae, oral, read-out: 50% effective dose
Procedure: Lepidoptera display the onset of a larval molt by slippage of the head capsule down over the mandibles during formation of an underlying pharate head capsule; this morphological marker accompanies epidermal apolysis which ordinarily occurs at or near peak molting hormone titers. Example No. 3 causes a rapid, premature apolysis in newly ecdysed fifth instar day 0 (L5DO) M. sexta larvae. Clear signs of head capsule apolysis are evident 24 hours after the initiation of feeding.
(§1) L4D1 means fourth instar, first day after molting. L4 animals 36 hours after ecdysis were ligated, decapitated and next day injected with varying doses of compound in 1 - 2 ul DMSO. They were scored as follows: 0 = normal L4 abdomens with no L5 crochets or spiracle apolysis; 1 = exposed dorsal vessel (response to moderate levels of molting hormone in the presence of low JH levels); 2 = L5 crochets formed but no spiracle apolysis; 3 = L5 crochets formed and mild spiracle apolysis; 4 = strong molting response, both L5 crochets and spiracle cuticle synthesized. These methods are an adaptation of the method of J. W. Truman, L. M. Riddiford, L. Safranek, 39 Dev. Biol 247 (1974). Injection and scoring of L5D3 abdomens (weighing 6.5 - 7.5 g) are also adaptations of previous methods in H. F. Nijhout, 22 J. Insect Physiol. 453 (1976). Mature feeding stage fifth instar animals weighing 8.5 - 9.5 g were ligated and decapitated, and immediately injected with Example No. 3 in 2 - 5 ul DMSO. Animals were held over moistened filter paper at 25 ° C and were scored after three days. Scoring was as follows: 0 = normal undeveloped blue-green L5D3 abdomen; 1 = light dorsal vessel exposure; 2 = dorsal vessel well-exposed with mild cuticular blanching, abdominal contraction; 3 = complete prepupal cuticle formation with strong abdominal contraction and strong cuticular blanching. For both L4 and L5 abdomens, 50% effective doses were determined by plotting the mean score for all individuals vs. dose, then determining the dose which gives a score of 2.0 and 1.5 respectively. Intact L5D0 hornworms were either allowed to feed on treated commercial black cutworm diet or injected into a proleg and scored after 48 hours. The 50% effective dose was calculated by plotting percentage of the population bearing a prematurely apolysed head capsule vs. dose. For all experiments in this table at least 5 different doses with 10 animals per dose were used.
The dosage differences between the two compounds was even more dramatic in bioassays on intact (unligated) L5D0 hornworms. If the compounds are injected, Example No. 3 was 67-fold as effective as 20-hydroxyecdysone, while if administered orally, it was over 670-fold as potent.
Hemolymph concentrations of 14C-Example No. 3 were measured by feeding L5D0 hornworm larvae artificial diet containing the labelled compound. At specified intervals thereafter measured volumes of hemolymph were collected, extracted and analyzed by thin layer chromatography and high performance liquid chromatography. […] Blood levels then declined rapidly, but remained at a residual level of about 3 uM for at least 36 hours thereafter.

intact L5D0 hornworms [2] = experiment: Premature head capsule apolysis in intact L5D0 hornworms, injected; type: in vivo, M. sexta; conditions: for ED50: Manduca sexta, L5D0 larvae, read-out: 50% effective dose
Procedure: as §1
The dosage differences between the two compounds was even more dramatic in bioassays on intact (unligated) L5D0 hornworms. […]

For `CC(C)(O)CC[C@@H](O)[C@](C)(O)[C@H]1CC[C@@]2(O)C3=CC(=O)[C@@H]4C[C@@H](O)[C@@H](O)C[C@]4(C)[C@H]3CC[C@]12C` [20-hydroxyecdysone, reference compound], the ED50 (intact L5D0 hornworms [1]; Manduca sexta) was > 2000 mg/kg, the head capsule slippage (intact L5D0 hornworms [1]; feeding up to 2000 ppm, L5D0 hornworm larvae) was “failed to elicit head capsule slippage” and the ED50 (intact L5D0 hornworms [2]) was 181 mg/kg.

`CC(C)(C)N(NC(=O)c1ccccc1)C(=O)c1ccccc1` [Example No. 3, N'-t-butyl-N,N'-dibenzoylhydrazine] was tested, and the ED95 (intact L5D0 hornworms [1]; Manduca sexta, po, L5D0 hornworm larvae, in artificial diet, read-out: 95% effective dose for premature molting) was ~10 mg/kg, the ED50 (intact L5D0 hornworms [1]; Manduca sexta) was 3 mg/kg and the “fold as potent as 20-hydroxyecdysone” value (intact L5D0 hornworms [1]; intact L5D0 hornworms, administered orally) was “over 670 fold”. For the same compound, the “time to clear signs of head capsule apolysis” value (intact L5D0 hornworms [1]; newly ecdysed L5D0 larvae, after the initiation of feeding) was 24 h, the ED50 (intact L5D0 hornworms [2]) was 3.4 mg/kg and the “fold as effective as 20-hydroxyecdysone” value (intact L5D0 hornworms [2]; intact L5D0 hornworms) was 67 fold.
